Source: patent US20260094669A1, “EPITOPE PREDICTION VIA A LEARNED GENOTYPE NETWORK ACROSS CLASS II MHC ALLELES” (Seattle Project Corp., priority 2023, published 2026)

T1: HLA-DP of Raji cells (DPA1*02:02/DPB1*01:01) (human, UniProt P20036 29-222; P04440 30-225, limits assumed)
T1 construct: whole, on cells; also called Raji_25mer DP
T1 MHC II alpha: not shown
T1 MHC II beta: not shown


Biological target: T1, HLA-DP of Raji cells …
Experiment: targeted MS of peptides eluted from HLA-DP IP (B7/21.1), Raji cells expressing KRAS G12C 25mer
Details: not given

Row | Molecule | binding result
1 | GACGVGKSALTIQLI (KRAS G12C peptide eluted from HLA class II of cells engineered to express a KRAS G12C construct; also called Peptide_099class2; KRAS MHC II Peptide 099) | binds

Test system: CD4 or CD8 T cell depleted PBMCs
Experiment: CD4/CD8 depletions followed by IFNγ ELISpot or FluoroSpot
Assay type: cell-based, human
Details: PBMCs from single donors; peptide #29: donor SE-0386
Protocol: CD4 or CD8 T cells were depleted from total PBMCs using Miltenyi MACS microbeads and columns. PBMCs were labeled with anti-CD4 or anti-CD8 microbeads before being run through a MACS Column placed in a MACS Separator magnet. Labeled cells remained in the column and the negative fractions were collected as either the CD8 or CD4 enriched population. Cells were then plated at 200,000 cells/well and stimulated overnight in an IFNγ ELISpot assay or FluoroSpot assay to detect IFNγ or IL-2.

Row | Molecule | responses in CD4 enriched (CD8 depleted) samples
2 | EYKLVVVGACG [Peptide_29] | demonstrated responses

Same assay, conditions: class II long OLP pools deconvolution

Row | Molecule | T cell response in healthy donor SE-0386
3 | EYKLVVVGACG [Peptide_29] | CD4^+ T cell-dependent response

Biological target: T2, HLA-DP of DBB cells (DPA1*01:03/DPB1*04:01) (human, UniProt P20036 29-222; P04440 30-225, limits assumed)
T2 construct: whole, on cells; also called DBB_25mer DP
T2 sequence (P20036 29-222 limits assumed, chain 1 of 4, other chains not shown): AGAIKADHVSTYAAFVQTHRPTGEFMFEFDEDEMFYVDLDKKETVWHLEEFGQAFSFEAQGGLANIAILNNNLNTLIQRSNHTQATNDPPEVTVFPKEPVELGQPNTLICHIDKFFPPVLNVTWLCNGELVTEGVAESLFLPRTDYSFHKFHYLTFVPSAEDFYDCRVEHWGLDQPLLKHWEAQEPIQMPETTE
T2 sequence (P04440 30-225 limits assumed, chain 2 of 4, other chains not shown): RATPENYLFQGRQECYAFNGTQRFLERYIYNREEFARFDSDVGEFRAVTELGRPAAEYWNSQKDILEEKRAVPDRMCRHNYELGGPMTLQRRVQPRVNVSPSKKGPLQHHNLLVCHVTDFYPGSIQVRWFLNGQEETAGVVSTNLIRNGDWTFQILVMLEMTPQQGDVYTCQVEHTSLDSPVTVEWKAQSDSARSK
Experiment: targeted MS of peptides eluted from HLA-DP IP (B7/21.1), DBB cells expressing KRAS G12C 25mer
Details: not given

Row | Molecule | binding result
4 | MTEYKLVVVGAC (KRAS G12C peptide eluted from HLA class II of cells engineered to express a KRAS G12C construct; also called Peptide_098class2; KRAS MHC II Peptide 098) | binds

Test system: IFNγ-producing T cells (PBMCs)
Experiment: ex vivo IFNγ ELISpot assay
Assay type: cell-based, human
Details: PBMCs from single donor SE-0386

Row | Molecule | response to single peptides from CD8 pools, ex vivo ELISpot
5 | EYKLVVVGACG [Peptide_29] | demonstrated a response

Same assay, conditions: patient G05-002-122 PBMCs following vaccination

Row | Molecule | responses to single 8-11mer peptides, ex vivo IFNγ ELISpot
6 | EYKLVVVGACG [Peptide_29] | confirmed responses

Test system: CD4+ T cell
Experiment: not given
Details: CD4+ immunogenicity label (1/0) used in logistic regression; ELISpot response data from Ott et al.; cited from earlier work

Row | Molecule | y
7 | PAHPSQGAVPPSRAAAEPHLKPSPSELQTA | 1
8 | HLLQKQTSIQSPSLYGNSSPPLNK | 0
9 | STEVEPKESPHLARHRHLMKTLVKSLST | 0
10 | MAGPKGFQYRALYPFRRER | 0
11 | RPAGRTQLLWTPAAPTAMAEVGPGHTP | 1
12 | LSPREEFLRLCKKIMMRSIQ | 1
13 | WCTEMKRVFGFPVHYTDVSNMS | 0
14 | SPGPRTAPRPGSQKQAGKDWQ | 0
15 | NLKAPRLLFAPEYGPKLKLRALEDRHS | 0
16 | SHNELADSGIPENSFNVSSLVE | 0
17 | SLTEESGGAVAFFPGNLSTSSSA | 0
18 | DVTGPHLYSIYLHGSTDKLPYVTMGS | 0
19 | KGEKNGMTFSSTKDYVNNV | 0
20 | ALLQNVELRRNVLVSPTPLAN | 0
21 | SRLQTRKNKKLALSSTPSNIAPSD | 1
22 | SGSPPLRVSVGDFSQEFSPIQEAQQD | 1
23 | ELQYRGRELRFNLIANQHLLAPGFVSETR | 1
24 | VTSPKASPVTFPAAAFPTASPANKD | 1
25 | AAVRPEQRPAARGSRV | 0
26 | TTPSGSAEYMASEVVEVFTDQAT | 0
27 | LHTHYDYVSALHPVSTPSKEYTSA | 0
28 | LGETMGQVTEKLQPTYMEET | 0
29 | PETGEIQVKTFLDREQRESYELKV | 0
30 | LCPREEFLRLCKKIMMRSIQ | 0
31 | VTLNDMKARQKALVRERERQLA | 0

Row | Molecule | y
32 | DGGRQHSGPRRHSGAGPKPSSSEWAVCWAP | 0
33 | AASAAAFPSQRTSWEFLQSLVSIKQEK | 1
34 | FPVVQSTEDVFPQGLPNEYAFVT | 0
35 | TKRQVILLHTELERFLEYLPLRF | 0
36 | FCGTPDYIAPKIIAYQPYGKSVD | 0
37 | GHQKLPGKIHLFEAEFTQVAKKEPDG | 1
38 | ARLQSKEYPVIFKSIMRQRLISPQL | 0
39 | SPQSGGAATLAAQARLQPVHLDVWGEHERG | 0
40 | DRASFLLTDYALSPDGSIRKATG | 1
41 | PAPPPAVPKEHPAPPAPPPASAPTP | 0
42 | TETVNHHYLLFQNTDLGSFHDLLR | 1
43 | SHHTHSYQRYSHPLFLPGHRLDPPI | 0
44 | STQHADLTIIDNIKEMNFLRRYK | 0
45 | KHLPGVNFPGNQWNPVEGILPS | 0
46 | TTVTHERKQAKVVNPPIQEVGKGARK | 0
47 | NQVLASRYGIRGFSTIKIFQKGESPV | 0
48 | GPLQLPVTRKNMPLPGVVKLPPLPGS | 0
49 | GLTRISIQRAQPLPPCLPSFRPPTALQGLS | 0
50 | SHLASLKNNVSPVLRSHSFSDPSPKFA | 1
51 | GRMSPSQFARVPGYVGSPLAAMNPK | 1
52 | DRSVLAKKLKFVTLVFRHGDRSPID | 0
53 | EDLDANLRKLNFRLFVIRGQPAD | 0
54 | SSPLGRANGRRFANPRDSFSAMGFQR | 0
55 | RLVLGKFGDLTNNFSSPHAR | 0
56 | SHTQTTLFHTFYELLIQKNKHK | 0

Row | Molecule | y
57 | FAKGFRESDLNSWPVAPRPLLSV | 0
58 | TGKPEMDFVRLAQLFARARPMGLF | 0
59 | SPIKLVQKVASKIPFPDRITEESV | 0
60 | HASHLQEHQRIYTGEKPFKCDT | 0
61 | DSYHLYAYHEELSATVPSQWKKIG | 0
62 | PENDDLFMMPRIVDVTSLATEGG | 0
63 | PGGDSGELITDAHELGVAHPPGY | 0
64 | STLPVISDSTTKRRWSALVIGL | 0
65 | VKQLERGEASVVDFKKNLEYAAT | 0
66 | RGRLPAGAVRTLLSQVNKVWDQSS | 0
67 | GDQYKATDFVADWAGTFKMVFTPKDGSG | 1
68 | DEQGREAELARSGPSAAGPVRLKPGLVPGL | 0
69 | ERFWRNILLLSLHKGSLYPRIPGLGKE | 0
70 | GSGSQMPAWRTRGAISASSTQKTPTTRL | 0
71 | TFPKKIQMLARDFLDEY | 0
72 | EDSDKLFESKAELADHQKF | 0
73 | TIKNSDKNVVLEHFG | 0
74 | VNGISSQPQVPFYPNLQKSQYYSTV | 0
75 | PASAKSRREFDKIELAYRR | 0
76 | MSQDIKKADEQIESMTYSTERKT | 0
77 | KLRTIPLSDNTIFRRICTIAKHLE | 1
78 | RGQIKLADFRLARLYSSEESR | 0
79 | DGAWPVLLDKFVEWYKDKQMS | 0
80 | LENNANHDETSFLLPRKESNIVD | 0
81 | DGVSEEFWLVDLLPSTHYT | 1

Row | Molecule | y
82 | RRGGALFASRPRFTPL | 0
83 | LNTGLFRIKFKEPLENLI | 0
84 | TAQFAPSPGQPPALSPSYPGHRLPLQQG | 0
85 | SLPSNVLSSLVLVPLHTTPK | 0
86 | ASATEPANDSLFSPGAANLFSTYLAR | 0
87 | SSHYKFSKPALQSQSISLVQQS | 1
88 | SDAFSGLTALPQSILLFGP | 0
89 | TKLKSKAPHWTNCILHEYKNLSTS | 0
90 | KMQRRNDDKSILMHGLVSLRESSRG | 0
91 | SLRNNMFEISDRFIGIYKTYNITK | 0
92 | EVVGGYTWPSGNIYQGYWAQGKR | 0
93 | DKGHQFHVHPLLHSGDDLDP | 0
94 | EIHGKCENMTITSRGTTVTPTKETVSLG | 0
95 | SHQIHSYQLYTHPLLHPWDHRD | 0
96 | GSVLQFMPFTTVSELMKVSAMSSPKV | 0
97 | GHEHQPDMQKSLLRAAFFGKCFLDR | 1
98 | TRNSFALVPSLQRLMLRKVALKNVDSSPS | 0
99 | YLSHTLGAASSFMRPTVPPPQF | 0
100 | RYNSTAATNEVSEVTVFSKSPVT | 0
101 | SHKLESIKEITNFKDAKQLL | 0
102 | WTPAAPTAMAEVGPGHTPAHPSQGAVPP | 1
103 | NNSKKKWFLFQDSKKIQVEQPQ | 0

Test system: rTCR Jurkat cells (CD69, CD25)
Experiment: recombinant TCR (rTCR) Jurkat functional assay
Assay type: cell-based, human
Details: co-culture with class II matched KAS116 cells

Row | Molecule | response of TCR969/TCR995 rTCR Jurkat cells to the peptide
104 | EYKLVVVGACG [Peptide_29] | confirmed responses
